In this assay the target is human VPS34 (Homo sapiens (Human), UniProt Q8NEB9). Put plainly: Human VPS34 enzyme assay (Adapta TR-FRET). Format: biochemical. Conditions: for inhibition at 1.11 µM: 1 h, inhibition of VPS34 at a 1.11 μM concentration, read-out: Percent Inhibition; for IC50: human VPS34 enzyme assay, IC50 ranges. Here is the method:
VPS34 (accession number GB:BC033004) was cloned into pDEST20-Thombin as N-terminal GST tagged fusion proteins using the Gateway system (Invitrogen, catalog#11804-013). The sequences were verified before recombinant protein expression using the Baculovirus Expression System with Gateway® Technology. For expression VPS34 was infected at 1 MOI in SF9 cells and harvested 72 hours post infection. For purification, VPS34 is purified by Glutathione Sepharose 4 Fast Flow (GE Healthcare #17-5132-03) followed by HiTrap Q (GE Healthcare #17-1153-01). Human VPS34 Enzyme Assay Method 100 nL compounds in DMSO are added to wells of a 384 well microtitre plate (Greiner 780076). At room temperature: 5 ul VPS34 reaction buffer (Invitrogen Assay Buffer Q (diluted 1 in 5 with nanopure water) plus 2 mM DTT and 2 mM MnCl2) containing ATP (20 uM, Promega) and 200 uM PI-PS substrate (Invitrogen PV5122) is added followed immediately by 5 ul VPS34 reaction buffer (as above) containing VPS34 (5 nM, Millennium Protein Sciences Group) and the mixture is incubated with shaking at room temperature for 1 hour. Then 5 ul […]-detect mix (as per Invitrogen Adapta Assay kit (PV5009) instructions (contains kinase quench buffer, TR-FRET buffer, Adapta Eu anti-ADP antibody and Alexa Fluor 647 ADP tracer)) is added to quench the reaction. The plates are then incubated for 30 minutes at room temperature with shaking and then read on a BMG PheraStar Plus reader. For the assay methods described above, test compound percent inhibition, at various concentrations, is calculated relative to control (DMSO and EDTA) treated samples. Compound concentration versus percent inhibition curves are fitted to generate IC50 values. One skilled in the art will appreciate that the values generated either as percentage inhibition at a single concentration or IC50 values are subject to experimental variation. […] Additionally, compounds of the invention that inhibit VPS34 are described with the following IC50 ranges: […]
(In TR-FRET formats the signal depends on donor and acceptor labels being close together.)

Sequence of human VPS34 (Q8NEB9 whole entry, the tested form may be a part): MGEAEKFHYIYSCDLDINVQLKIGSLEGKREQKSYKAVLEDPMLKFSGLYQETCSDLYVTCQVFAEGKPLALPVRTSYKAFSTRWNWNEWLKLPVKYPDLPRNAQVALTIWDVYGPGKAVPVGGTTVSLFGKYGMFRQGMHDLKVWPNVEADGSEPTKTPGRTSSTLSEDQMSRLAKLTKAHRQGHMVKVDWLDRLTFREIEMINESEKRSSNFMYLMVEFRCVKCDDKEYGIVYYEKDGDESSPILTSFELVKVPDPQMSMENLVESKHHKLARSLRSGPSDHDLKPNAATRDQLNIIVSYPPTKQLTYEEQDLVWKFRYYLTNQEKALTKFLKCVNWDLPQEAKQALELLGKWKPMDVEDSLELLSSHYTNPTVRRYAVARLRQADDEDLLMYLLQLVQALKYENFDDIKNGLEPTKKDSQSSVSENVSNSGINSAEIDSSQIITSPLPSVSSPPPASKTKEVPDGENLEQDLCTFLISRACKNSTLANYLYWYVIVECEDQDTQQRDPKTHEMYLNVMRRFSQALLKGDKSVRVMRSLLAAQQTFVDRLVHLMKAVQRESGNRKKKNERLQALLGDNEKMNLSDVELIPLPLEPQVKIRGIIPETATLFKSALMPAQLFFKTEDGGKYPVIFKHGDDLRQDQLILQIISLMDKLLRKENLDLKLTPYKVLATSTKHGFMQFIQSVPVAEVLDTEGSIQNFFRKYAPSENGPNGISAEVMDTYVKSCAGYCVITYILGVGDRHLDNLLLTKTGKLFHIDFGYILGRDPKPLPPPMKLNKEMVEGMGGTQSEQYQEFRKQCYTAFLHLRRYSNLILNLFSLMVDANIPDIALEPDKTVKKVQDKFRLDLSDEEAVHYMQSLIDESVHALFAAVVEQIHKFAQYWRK

As usually defined, the inhibition is the relative decrease from the control value, in per cent. The IC50 is the concentration that inhibits the measured activity by half. High values mean weaker potency in that assay, low ones greater potency in that assay. As to `CC(=O)Nc1cc(-c2cnc(C)c3c2ccn3S(C)(=O)=O)ccn1` [Compound I-45, N-{4-[7-methyl-1-(methylsulfonyl)-1H-pyrrolo[2,3-c]pyridin-4-yl]pyridin-2-yl}acetamide], the inhibition at 1.11 µM was over 99% and the IC50 lay in the range of 10 to 50 nM.
For `COC(=O)Nc1cc(-c2cncc3c2ccn3S(=O)(=O)c2ccccc2)ccn1` [Compound I-28, methyl {4-[1-(phenylsulfonyl)-1H-pyrrolo[2,3-c]pyridin-4-yl]pyridin-2-yl}carbamate], the inhibition at 1.11 µM was over 99% and the IC50 was 10 to 50 nM.
For `CC(=O)Nc1cc(-c2cnc(C)c3c2ccn3CC2CC2)ccn1` [Compound I-36, N-{4-[1-(cyclopropylmethyl)-7-methyl-1H-pyrrolo[2,3-c]pyridin-4-yl]pyridin-2-yl}acetamide] the same measures were 79% and over 100 nM.
With `COC(=O)Nc1cc(-c2cnc(C)c3c2ccn3S(=O)(=O)C2CC2)ccn1` [Compound I-43, methyl {4-[1-(cyclopropylsulfonyl)-7-methyl-1H-pyrrolo[2,3-c]pyridin-4-yl]pyridin-2-yl}carbamate], the inhibition at 1.11 µM is over 99% and the IC50 was under 10 nM.
As for `COC(=O)Nc1cc(-c2cnc(OC)c3c2ccn3S(=O)(=O)c2ccccc2)ccn1` [Compound I-10, methyl {4-[7-methoxy-1-(phenylsulfonyl)-1H-pyrrolo[2,3-c]pyridin-4-yl]pyridin-2-yl}carbamate], the inhibition at 1.11 µM is over 99% and the IC50 was under 10 nM.
As to `O=S(=O)(C1CC1)n1ccc2c(-c3ccnc(Nc4ccncn4)c3)cncc21` [Compound I-49, N-{4-[1-(cyclopropylsulfonyl)-1H-pyrrolo[2,3-c]pyridin-4-yl]pyridin-2-yl}pyrimidin-4-amine], the inhibition at 1.11 µM came to 88% and the IC50 was in the range of 10 to 50 nM.
As to `Cc1ncc(-c2ccnc(NC(=O)C3CC3(F)F)c2)c2ccn(S(C)(=O)=O)c12` (racemic) [Compound I-35, (rac)-2,2-difluoro-N-{4-[7-methyl-1-(methylsulfonyl)-1H-pyrrolo[2,3-c]pyridin-4-yl]pyridin-2-yl}cyclopropanecarboxamide], the inhibition at 1.11 µM is over 99% and the IC50 is under 10 nM.

These data come from patent publication US10202373B2, “Heteroaryls and uses thereof” (MILLENNIUM PHARMACEUTICALS, INC., priority 2014, dated 2019).
